The values that follow come from PubChem BioAssay AID1259407 (Chemical Carcinogenesis Research Information System (CCRIS), 2018).

Molecules are shown by their SMILES. Active and inactive are the calls of the source. How the calls were made is not given here.

For this data set, the system named is CCRIS mutagenicity, Ames/micronucleus/aberration tests. Briefly: CCRIS mutagenicity studies.
Setting [1] is: Test System: AMES SALMONELLA TYPHIMURIUM, Strain/Indicator: TA1535, Metabolic Activation: NONE, Method: PREINCUBATION
Where [2] appears, read: Test System: AMES SALMONELLA TYPHIMURIUM, Strain/Indicator: TA1537, Metabolic Activation: NONE, Method: PREINCUBATION

Turning to `C=CCc1ccc(O)c(OC)c1`, the mutagenic call by setting is: (End Point: IN VITRO CHROMOSOMAL ABERRATIONS, Test System: CHINESE HAMSTER OVARY CELLS, Metabolic Activation: NONE) “inactive; negative”; (End Point: IN VITRO CHROMOSOMAL ABERRATIONS, Test System: CHINESE HAMSTER OVARY CELLS, Metabolic Activation: RAT, LIVER, S-9, AROCLOR 1254) “active; positive”; (End Point: IN VITRO CHROMOSOMAL ABERRATIONS, Test System: CHO-WBL CELLS, Metabolic Activation: RAT, LIVER, S-9, PHENOBARBITAL AND BETA-NAPHTHOFLAVONE) “active; positive (at 24 hr)”; (End Point: IN VITRO CHROMOSOMAL ABERRATIONS, Test System: SYRIAN HAMSTER EMBRYO (SHE) CELLS, Metabolic Activation: NONE) “active; positive (structural changes)”; (End Point: IN VITRO CHROMOSOMAL ABERRATIONS, Test System: SYRIAN HAMSTER EMBRYO (SHE) CELLS, Metabolic Activation: RAT, LIVER, S-9) “active; positive (structural changes)”; (End Point: IN VIVO MICRONUCLEUS, Test System: BONE MARROW POLYCHROMATIC ERYTHROCYTES, Species: MOUSE, Strain/Sex: DDY/MALE, Route: IP) “inactive; negative”. For the same compound, the mutagenic call is, setting by setting: (Test System: AMES SALMONELLA TYPHIMURIUM, Strain/Indicator: TA97, Metabolic Activation: NONE, Method: PREINCUBATION (120 MIN)) “inactive; negative”; (Test System: AMES SALMONELLA TYPHIMURIUM, Strain/Indicator: TA97, Metabolic Activation: S-9, Method: PREINCUBATION (120 MIN)) “inactive; negative”; (Test System: AMES SALMONELLA TYPHIMURIUM, Strain/Indicator: TA98, Metabolic Activation: HAMSTER, LIVER, S-9, AROCLOR 1254, Method: PREINCUBATION) “inactive; negative”; (Test System: AMES SALMONELLA TYPHIMURIUM, Strain/Indicator: TA98, Metabolic Activation: NONE, Method: PREINCUBATION) “inactive; negative”; (Test System: AMES SALMONELLA TYPHIMURIUM, Strain/Indicator: TA98, Metabolic Activation: NONE, Method: PREINCUBATION (120 MIN)) “inactive; negative”; (Test System: AMES SALMONELLA TYPHIMURIUM, Strain/Indicator: TA98, Metabolic Activation: NONE, Method: STANDARD PLATE) “inactive; negative”. Besides, the mutagenic call by setting is: (Test System: AMES SALMONELLA TYPHIMURIUM, Strain/Indicator: TA98, Metabolic Activation: RAT, LIVER, S-9, AROCLOR 1254, Method: PREINCUBATION) “inactive; negative”; (Test System: AMES SALMONELLA TYPHIMURIUM, Strain/Indicator: TA98, Metabolic Activation: RAT, LIVER, S-9, AROCLOR 1254, Method: STANDARD PLATE) “inactive; negative”; (Test System: AMES SALMONELLA TYPHIMURIUM, Strain/Indicator: TA98, Metabolic Activation: S-9, Method: PREINCUBATION (120 MIN)) “inactive; negative”; (Test System: AMES SALMONELLA TYPHIMURIUM, Strain/Indicator: TA98, Metabolic Activation: S-9, Method: STANDARD PLATE) “inactive; negative”; (Test System: AMES SALMONELLA TYPHIMURIUM, Strain/Indicator: TA100, Metabolic Activation: HAMSTER, LIVER, S-9, AROCLOR 1254, Method: PREINCUBATION) “inactive; negative”; (Test System: AMES SALMONELLA TYPHIMURIUM, Strain/Indicator: TA100, Metabolic Activation: NONE, Method: PREINCUBATION) “inactive; negative”. The mutagenic call is, setting by setting: (Test System: AMES SALMONELLA TYPHIMURIUM, Strain/Indicator: TA100, Metabolic Activation: NONE, Method: PREINCUBATION (120 MIN)) “inactive; negative”; (Test System: AMES SALMONELLA TYPHIMURIUM, Strain/Indicator: TA100, Metabolic Activation: NONE, Method: STANDARD PLATE) “inactive; negative”; (Test System: AMES SALMONELLA TYPHIMURIUM, Strain/Indicator: TA100, Metabolic Activation: RAT, LIVER, S-9, AROCLOR 1254, Method: PREINCUBATION) “inactive; negative”; (Test System: AMES SALMONELLA TYPHIMURIUM, Strain/Indicator: TA100, Metabolic Activation: RAT, LIVER, S-9, AROCLOR 1254, Method: STANDARD PLATE) “inactive; negative”; (Test System: AMES SALMONELLA TYPHIMURIUM, Strain/Indicator: TA100, Metabolic Activation: S-9, Method: PREINCUBATION (120 MIN)) “inactive; negative”; (Test System: AMES SALMONELLA TYPHIMURIUM, Strain/Indicator: TA100, Metabolic Activation: S-9, Method: STANDARD PLATE) “inactive; negative”. Further, the mutagenic call reads like this: (Test System: AMES SALMONELLA TYPHIMURIUM, Strain/Indicator: TA1535, Metabolic Activation: HAMSTER, LIVER, S-9, AROCLOR 1254, Method: PREINCUBATION) “inactive; negative”; under setting [1], “inactive; negative”; (Test System: AMES SALMONELLA TYPHIMURIUM, Strain/Indicator: TA1535, Metabolic Activation: NONE, Method: STANDARD PLATE) “inactive; negative”; (Test System: AMES SALMONELLA TYPHIMURIUM, Strain/Indicator: TA1535, Metabolic Activation: PAPS, Method: STANDARD PLATE) “inactive; negative”; (Test System: AMES SALMONELLA TYPHIMURIUM, Strain/Indicator: TA1535, Metabolic Activation: RAT, LIVER, S-9, AROCLOR 1254, PAPS, Method: STANDARD PLATE) “active; positive”; (Test System: AMES SALMONELLA TYPHIMURIUM, Strain/Indicator: TA1535, Metabolic Activation: RAT, LIVER, S-9, AROCLOR 1254, Method: PREINCUBATION) “inactive; negative”. For the same compound, the mutagenic call was “inactive; negative” (Test System: AMES SALMONELLA TYPHIMURIUM, Strain/Indicator: TA1535, Metabolic Activation: RAT, LIVER, S-9, AROCLOR 1254, Method: STANDARD PLATE); “inactive; negative” (Test System: AMES SALMONELLA TYPHIMURIUM, Strain/Indicator: TA1537, Metabolic Activation: HAMSTER, LIVER, S-9, AROCLOR 1254, Method: PREINCUBATION); “inactive; negative” under setting [2]; “inactive; negative” (Test System: AMES SALMONELLA TYPHIMURIUM, Strain/Indicator: TA1537, Metabolic Activation: NONE, Method: STANDARD PLATE); “inactive; negative” (Test System: AMES SALMONELLA TYPHIMURIUM, Strain/Indicator: TA1537, Metabolic Activation: RAT, LIVER, S-9, AROCLOR 1254, Method: PREINCUBATION); “inactive; negative” (Test System: AMES SALMONELLA TYPHIMURIUM, Strain/Indicator: TA1537, Metabolic Activation: RAT, LIVER, S-9, AROCLOR 1254, Method: STANDARD PLATE). Moreover, the mutagenic call by setting is: (Test System: AMES SALMONELLA TYPHIMURIUM, Strain/Indicator: TA1538, Metabolic Activation: NONE, Method: STANDARD PLATE) “inactive; negative”; (Test System: AMES SALMONELLA TYPHIMURIUM, Strain/Indicator: TA1538, Metabolic Activation: RAT, LIVER, S-9, AROCLOR 1254, Method: STANDARD PLATE) “inactive; negative”; (Test System: MOUSE LYMPHOMA, Strain/Indicator: L5178Y (TK+/TK-), Metabolic Activation: NONE, Method: MICROWELL) “active; positive”; (Test System: MOUSE LYMPHOMA, Strain/Indicator: L5178Y (TK+/TK-), Metabolic Activation: S-9, Method: MICROWELL) “active; positive”.
Consider `O=C=Nc1ccc(Cc2ccccc2N=C=O)cc1`, for which, for the setting “Test System: AMES SALMONELLA TYPHIMURIUM, Strain/Indicator: TA100, Metabolic Activation: RAT, LIVER, S-9, AROCLOR 1254 (30%), Method: STANDARD PLATE”, the mutagenic call is “inactive; negative”.
With `Nc1cccc2nc3ccccc3c(N)c12`, the mutagenic call reads like this: under setting [1], “inactive; negative”; (Test System: AMES SALMONELLA TYPHIMURIUM, Strain/Indicator: TA1535, Metabolic Activation: RAT, LIVER, S-9, TETRACHLOROBIPHENYL, Method: PREINCUBATION) “active; positive”; under setting [2], “active; positive”; (Test System: AMES SALMONELLA TYPHIMURIUM, Strain/Indicator: TA1537, Metabolic Activation: RAT, LIVER, S-9, TETRACHLOROBIPHENYL, Method: PREINCUBATION) “active; positive”; (Test System: AMES SALMONELLA TYPHIMURIUM, Strain/Indicator: TA1538, Metabolic Activation: NONE, Method: PREINCUBATION) “inactive; negative”; (Test System: AMES SALMONELLA TYPHIMURIUM, Strain/Indicator: TA1538, Metabolic Activation: RAT, LIVER, S-9, TETRACHLOROBIPHENYL, Method: PREINCUBATION) “active; positive”. Besides, the mutagenic call runs as follows: (Test System: AMES SALMONELLA TYPHIMURIUM, Strain/Indicator: TA1975, Metabolic Activation: RAT, LIVER, S-9, TETRACHLOROBIPHENYL, Method: PREINCUBATION) “active; positive”; (Test System: AMES SALMONELLA TYPHIMURIUM, Strain/Indicator: TA1977, Metabolic Activation: NONE, Method: PREINCUBATION) “active; positive”; (Test System: AMES SALMONELLA TYPHIMURIUM, Strain/Indicator: TA1977, Metabolic Activation: RAT, LIVER, S-9, TETRACHLOROBIPHENYL, Method: PREINCUBATION) “active; positive”; (Test System: AMES SALMONELLA TYPHIMURIUM, Strain/Indicator: TA1978, Metabolic Activation: RAT, LIVER, S-9, TETRACHLOROBIPHENYL, Method: PREINCUBATION) “active; positive”.
